Values quoted from earlier work, collected in patent US20160185712A1, “PHOTO-ACTIVATED HYDROGELS” (L'OREAL, priority 2014, published 2016).

water solubility: water soluble
Structure (SMILES): O=C1c2ccccc2C(=O)c2cc(S(=O)(=O)[O-])ccc21.[Na+] [anthraquinone-2-sulfonic acid sodium salt]
